Experimental data from PMC9817970 (Cancers, 2022).

Key:
Experiment in all cases: Kinase panel profiling
Assay type in all cases: biochemical
Details in all cases: 10 μM ATP
[1] = target: T1, CAMK2g (Homo sapiens, UniProt Q13555)
T1 construct: purchased Reaction Biology Corp
Protocol: (§1) Kinase panel profiling was conducted by Reaction Biology Corp. (San Diego, CA, USA). A single dose (1.0 μM) of 6r was tested against 371 recombinant human kinases in the presence of 10 μM ATP.

[2] = target: T2, AKT3 (Homo sapiens, UniProt Q9Y243)
T2 construct: purchased Reaction Biology Corp
Protocol: as §1

[3] = target: T3, GRK1 (Homo sapiens, UniProt Q15835)
T3 construct: purchased Reaction Biology Corp
Protocol: as §1

[4] = target: T4, MEKK6 (Homo sapiens, UniProt O95382)
T4 construct: purchased Reaction Biology Corp
Protocol: as §1

[5] = target: T5, PKCb1 (Homo sapiens, UniProt P05771)
T5 construct: purchased Reaction Biology Corp
Protocol: as §1

[6] = target: T6, CLK2 (Homo sapiens, UniProt P49760)
T6 construct: purchased Reaction Biology Corp
Protocol: as §1

[7] = target: T7, DRAK1/STK17A (Homo sapiens, UniProt Q9UEE5)
T7 construct: purchased Reaction Biology Corp
Protocol: as §1

[8] = target: T8, P38d/MAPK13 (Homo sapiens, UniProt O15264)
T8 construct: purchased Reaction Biology Corp
Protocol: as §1

[9] = target: T9, MYLK4 (Homo sapiens, UniProt Q86YV6)
T9 construct: purchased Reaction Biology Corp
Protocol: as §1

[10] = target: T10, WNK1 (Homo sapiens, UniProt Q9H4A3)
T10 construct: purchased Reaction Biology Corp
Protocol: as §1

[11] = target: T11, CAMK2b (Homo sapiens, UniProt Q13554)
T11 construct: purchased Reaction Biology Corp
Protocol: as §1

[12] = target: T12, CDK8/cyclin C (Homo sapiens, UniProt P49336)
T12 construct: purchased Reaction Biology Corp
Protocol: as §1

[13] = target: T13, JNK2 (Homo sapiens, UniProt P45984)
T13 construct: purchased Reaction Biology Corp
Protocol: as §1

[14] = target: T14, PLK2 (Homo sapiens, UniProt Q9NYY3)
T14 construct: purchased Reaction Biology Corp
Protocol: as §1

[15] = target: T15, CDK19/cyclin C (Homo sapiens, UniProt Q9BWU1)
T15 construct: purchased Reaction Biology Corp
Protocol: as §1

[16] = target: T16, CDK2/CYCLIN A (Homo sapiens, UniProt P24941)
T16 construct: purchased Reaction Biology Corp
Protocol: as §1

[17] = target: T17, PKAcb (Homo sapiens, UniProt P22694)
T17 construct: purchased Reaction Biology Corp
Protocol: as §1

[18] = target: T18, TTBK2 (Homo sapiens, UniProt Q6IQ55)
T18 construct: purchased Reaction Biology Corp
Protocol: as §1

[19] = target: T19, SNARK/NUAK2 (Homo sapiens, UniProt Q9H093)
T19 construct: purchased Reaction Biology Corp
Protocol: as §1

[20] = target: T20, CDK5/p35 (Homo sapiens, UniProt Q00535)
T20 construct: purchased Reaction Biology Corp
Protocol: as §1

[21] = target: T21, MNK1 (Homo sapiens, UniProt Q9BUB5)
T21 construct: purchased Reaction Biology Corp
Protocol: as §1

[22] = target: T22, TAK1 (Homo sapiens, UniProt O43318)
T22 construct: purchased Reaction Biology Corp
Protocol: as §1

[23] = target: T23, TRKC (Homo sapiens, UniProt Q16288)
T23 construct: purchased Reaction Biology Corp
Protocol: as §1

[24] = target: T24, WNK3 (Homo sapiens, UniProt Q9BYP7)
T24 construct: purchased Reaction Biology Corp
Protocol: as §1

[25] = target: T25, WEE1 (Homo sapiens, UniProt P30291)
T25 construct: purchased Reaction Biology Corp
Protocol: as §1

[26] = target: T26, PHKg1 (Homo sapiens, UniProt Q16816)
T26 construct: purchased Reaction Biology Corp
Protocol: as §1

[27] = target: T27, SRMS (Homo sapiens, UniProt Q9H3Y6)
T27 construct: purchased Reaction Biology Corp
Protocol: as §1

[28] = target: T28, ALK5/TGFBR1 (Homo sapiens, UniProt P36897)
T28 construct: purchased Reaction Biology Corp
Protocol: as §1

[29] = target: T29, CDK9/CYCLIN K (Homo sapiens, UniProt P50750)
T29 construct: purchased Reaction Biology Corp
Protocol: as §1

[30] = target: T30, RSK4 (Homo sapiens, UniProt Q9UK32)
T30 construct: purchased Reaction Biology Corp
Protocol: as §1

[31] = target: T31, CTK/MATK (Homo sapiens, UniProt P42679)
T31 construct: purchased Reaction Biology Corp
Protocol: as §1

[32] = target: T32, MARK4 (Homo sapiens, UniProt Q96L34)
T32 construct: purchased Reaction Biology Corp
Protocol: as §1

[33] = target: T33, MASTL (Homo sapiens, UniProt Q96GX5)
T33 construct: purchased Reaction Biology Corp
Protocol: as §1

[34] = target: T34, HPK1/MAP4K1 (Homo sapiens, UniProt Q92918)
T34 construct: purchased Reaction Biology Corp
Protocol: as §1

[35] = target: T35, ROCK1 (Homo sapiens, UniProt Q13464)
T35 construct: purchased Reaction Biology Corp
Protocol: as §1

[36] = target: T36, JAK1 (Homo sapiens, UniProt P23458)
T36 construct: purchased Reaction Biology Corp
Protocol: as §1

[37] = target: T37, PAK2 (Homo sapiens, UniProt Q13177)
T37 construct: purchased Reaction Biology Corp
Protocol: as §1

[38] = target: T38, HIPK1 (Homo sapiens, UniProt Q86Z02)
T38 construct: purchased Reaction Biology Corp
Protocol: as §1

[39] = target: T39, CK1g1 (Homo sapiens, UniProt Q9HCP0)
T39 construct: purchased Reaction Biology Corp
Protocol: as §1

[40] = target: T40, FGFR1 (Homo sapiens, UniProt P11362)
T40 construct: purchased Reaction Biology Corp
Protocol: as §1

[41] = target: T41, BMX/ETK (Homo sapiens, UniProt P51813)
T41 construct: purchased Reaction Biology Corp
Protocol: as §1

[42] = target: T42, CDK9/cyclin T1 (Homo sapiens, UniProt P50750)
T42 construct: purchased Reaction Biology Corp
Protocol: as §1

T20 sequence (Q00535 whole entry): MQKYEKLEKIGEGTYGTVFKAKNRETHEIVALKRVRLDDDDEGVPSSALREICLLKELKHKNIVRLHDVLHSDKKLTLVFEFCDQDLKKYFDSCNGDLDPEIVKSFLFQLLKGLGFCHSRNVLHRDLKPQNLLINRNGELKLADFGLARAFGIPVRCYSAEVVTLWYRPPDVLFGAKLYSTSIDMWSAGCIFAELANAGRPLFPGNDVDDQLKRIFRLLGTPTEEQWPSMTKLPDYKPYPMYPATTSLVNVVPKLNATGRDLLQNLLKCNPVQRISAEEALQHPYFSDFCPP
T20 sequence (Q15078 whole entry partner): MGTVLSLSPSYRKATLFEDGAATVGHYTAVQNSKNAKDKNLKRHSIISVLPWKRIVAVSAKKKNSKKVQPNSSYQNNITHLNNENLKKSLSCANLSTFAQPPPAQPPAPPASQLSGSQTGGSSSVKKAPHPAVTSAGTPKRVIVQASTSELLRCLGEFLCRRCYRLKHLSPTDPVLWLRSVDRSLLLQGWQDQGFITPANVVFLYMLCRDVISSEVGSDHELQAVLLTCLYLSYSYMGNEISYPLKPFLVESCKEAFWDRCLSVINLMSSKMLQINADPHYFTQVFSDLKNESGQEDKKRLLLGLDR
T14 sequence (Q9NYY3 whole entry): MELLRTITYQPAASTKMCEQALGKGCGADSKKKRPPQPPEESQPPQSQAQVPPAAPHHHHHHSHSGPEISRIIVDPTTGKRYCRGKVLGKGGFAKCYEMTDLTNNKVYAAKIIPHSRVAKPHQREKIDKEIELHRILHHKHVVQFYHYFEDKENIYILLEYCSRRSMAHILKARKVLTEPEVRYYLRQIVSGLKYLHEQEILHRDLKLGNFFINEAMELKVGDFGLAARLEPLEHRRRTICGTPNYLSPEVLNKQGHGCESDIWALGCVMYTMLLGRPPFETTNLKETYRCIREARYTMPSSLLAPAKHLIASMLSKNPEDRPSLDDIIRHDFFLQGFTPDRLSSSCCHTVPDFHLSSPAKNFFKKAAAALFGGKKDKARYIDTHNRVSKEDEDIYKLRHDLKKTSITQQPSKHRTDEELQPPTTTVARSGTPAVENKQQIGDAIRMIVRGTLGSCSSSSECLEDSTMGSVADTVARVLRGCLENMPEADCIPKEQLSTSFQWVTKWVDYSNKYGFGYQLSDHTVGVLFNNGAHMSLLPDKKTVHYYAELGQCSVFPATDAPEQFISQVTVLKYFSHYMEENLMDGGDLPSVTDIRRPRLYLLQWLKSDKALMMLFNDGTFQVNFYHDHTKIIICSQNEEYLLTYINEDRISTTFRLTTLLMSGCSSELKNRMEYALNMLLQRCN
T38 sequence (Q86Z02 whole entry): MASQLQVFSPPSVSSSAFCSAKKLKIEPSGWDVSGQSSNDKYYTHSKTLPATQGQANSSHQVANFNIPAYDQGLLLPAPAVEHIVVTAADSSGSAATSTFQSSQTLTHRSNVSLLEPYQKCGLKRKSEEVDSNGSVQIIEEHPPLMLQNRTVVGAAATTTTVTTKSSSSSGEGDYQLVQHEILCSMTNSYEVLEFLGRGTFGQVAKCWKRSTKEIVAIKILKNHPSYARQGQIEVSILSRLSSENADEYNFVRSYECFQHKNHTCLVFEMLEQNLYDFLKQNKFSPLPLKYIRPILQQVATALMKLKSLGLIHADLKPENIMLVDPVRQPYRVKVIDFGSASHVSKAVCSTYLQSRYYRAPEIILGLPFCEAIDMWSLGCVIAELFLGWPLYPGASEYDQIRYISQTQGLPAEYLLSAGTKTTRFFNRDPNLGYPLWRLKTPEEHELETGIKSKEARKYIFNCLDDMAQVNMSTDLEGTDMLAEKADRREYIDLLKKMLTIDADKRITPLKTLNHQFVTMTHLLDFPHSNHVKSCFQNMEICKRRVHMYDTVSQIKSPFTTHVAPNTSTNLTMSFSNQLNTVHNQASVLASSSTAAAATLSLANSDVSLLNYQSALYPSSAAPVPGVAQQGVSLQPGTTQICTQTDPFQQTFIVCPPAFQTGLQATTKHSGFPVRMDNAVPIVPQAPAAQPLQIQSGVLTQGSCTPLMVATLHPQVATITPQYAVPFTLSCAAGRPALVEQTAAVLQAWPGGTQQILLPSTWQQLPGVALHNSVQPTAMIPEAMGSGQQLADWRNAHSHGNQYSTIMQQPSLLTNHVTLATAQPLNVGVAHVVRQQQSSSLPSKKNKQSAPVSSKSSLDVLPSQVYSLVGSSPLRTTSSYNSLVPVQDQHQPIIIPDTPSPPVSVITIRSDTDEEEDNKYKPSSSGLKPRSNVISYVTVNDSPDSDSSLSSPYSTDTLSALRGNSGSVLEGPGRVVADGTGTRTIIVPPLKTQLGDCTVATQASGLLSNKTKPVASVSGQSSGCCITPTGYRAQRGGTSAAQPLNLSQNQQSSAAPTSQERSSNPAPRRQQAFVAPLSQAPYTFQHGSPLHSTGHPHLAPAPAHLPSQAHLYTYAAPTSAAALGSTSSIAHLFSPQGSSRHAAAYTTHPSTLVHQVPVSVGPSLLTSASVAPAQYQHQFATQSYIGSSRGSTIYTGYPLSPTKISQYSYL
T35 sequence (Q13464 whole entry): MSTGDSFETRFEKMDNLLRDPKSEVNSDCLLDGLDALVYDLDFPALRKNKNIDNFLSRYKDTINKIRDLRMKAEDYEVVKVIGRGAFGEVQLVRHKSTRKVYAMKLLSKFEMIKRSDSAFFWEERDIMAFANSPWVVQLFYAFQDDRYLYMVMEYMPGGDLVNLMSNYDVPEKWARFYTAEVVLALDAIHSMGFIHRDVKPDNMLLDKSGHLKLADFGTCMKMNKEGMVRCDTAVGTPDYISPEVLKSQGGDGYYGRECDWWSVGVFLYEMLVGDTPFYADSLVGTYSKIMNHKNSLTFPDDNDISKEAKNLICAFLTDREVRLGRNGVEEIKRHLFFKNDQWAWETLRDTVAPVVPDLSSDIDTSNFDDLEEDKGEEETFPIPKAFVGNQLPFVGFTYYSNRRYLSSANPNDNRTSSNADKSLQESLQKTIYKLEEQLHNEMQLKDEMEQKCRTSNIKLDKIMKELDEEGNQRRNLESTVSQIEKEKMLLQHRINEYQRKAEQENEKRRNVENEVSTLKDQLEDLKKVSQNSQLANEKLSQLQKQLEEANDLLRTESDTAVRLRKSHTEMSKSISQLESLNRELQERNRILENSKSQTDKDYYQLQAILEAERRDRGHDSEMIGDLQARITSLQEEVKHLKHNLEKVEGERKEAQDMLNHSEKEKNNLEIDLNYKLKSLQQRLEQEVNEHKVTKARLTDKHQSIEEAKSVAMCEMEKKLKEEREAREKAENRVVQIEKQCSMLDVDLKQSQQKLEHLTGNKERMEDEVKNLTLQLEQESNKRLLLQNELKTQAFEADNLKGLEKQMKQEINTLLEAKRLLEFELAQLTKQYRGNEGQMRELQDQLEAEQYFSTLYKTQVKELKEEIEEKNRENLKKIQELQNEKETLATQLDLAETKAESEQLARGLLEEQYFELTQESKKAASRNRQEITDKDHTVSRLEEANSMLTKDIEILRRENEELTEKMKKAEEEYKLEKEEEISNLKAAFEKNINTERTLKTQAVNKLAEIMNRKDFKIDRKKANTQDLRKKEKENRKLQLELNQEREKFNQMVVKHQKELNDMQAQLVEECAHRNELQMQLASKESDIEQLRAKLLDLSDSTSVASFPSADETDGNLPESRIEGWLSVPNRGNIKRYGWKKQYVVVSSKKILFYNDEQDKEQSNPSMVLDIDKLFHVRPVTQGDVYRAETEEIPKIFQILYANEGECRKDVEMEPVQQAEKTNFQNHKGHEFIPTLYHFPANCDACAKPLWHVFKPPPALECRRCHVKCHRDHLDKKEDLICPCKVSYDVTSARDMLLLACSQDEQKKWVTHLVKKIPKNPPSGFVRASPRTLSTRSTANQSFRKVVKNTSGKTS
T40 sequence (P11362 22-822): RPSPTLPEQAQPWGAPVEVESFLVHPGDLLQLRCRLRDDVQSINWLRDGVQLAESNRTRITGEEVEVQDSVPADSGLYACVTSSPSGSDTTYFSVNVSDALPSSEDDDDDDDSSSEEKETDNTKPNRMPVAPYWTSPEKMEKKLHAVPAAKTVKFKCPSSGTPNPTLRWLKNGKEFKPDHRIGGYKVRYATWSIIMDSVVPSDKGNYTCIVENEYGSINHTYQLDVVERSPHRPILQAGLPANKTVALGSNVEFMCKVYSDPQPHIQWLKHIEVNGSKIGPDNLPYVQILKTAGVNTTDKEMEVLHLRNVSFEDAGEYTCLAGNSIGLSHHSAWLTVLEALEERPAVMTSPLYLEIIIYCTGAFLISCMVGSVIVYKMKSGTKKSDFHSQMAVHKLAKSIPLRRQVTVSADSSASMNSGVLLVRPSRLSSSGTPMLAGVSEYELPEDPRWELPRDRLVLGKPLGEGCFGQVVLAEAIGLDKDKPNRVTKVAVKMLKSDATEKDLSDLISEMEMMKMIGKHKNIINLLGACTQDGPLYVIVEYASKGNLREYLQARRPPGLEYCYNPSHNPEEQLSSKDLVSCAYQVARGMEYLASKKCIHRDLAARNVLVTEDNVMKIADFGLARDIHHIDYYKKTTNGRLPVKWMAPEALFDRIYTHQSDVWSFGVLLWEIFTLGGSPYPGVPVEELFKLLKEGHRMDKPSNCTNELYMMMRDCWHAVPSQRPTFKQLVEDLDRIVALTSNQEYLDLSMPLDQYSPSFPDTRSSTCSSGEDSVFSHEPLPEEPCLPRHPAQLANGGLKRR
T39 sequence (Q9HCP0 whole entry): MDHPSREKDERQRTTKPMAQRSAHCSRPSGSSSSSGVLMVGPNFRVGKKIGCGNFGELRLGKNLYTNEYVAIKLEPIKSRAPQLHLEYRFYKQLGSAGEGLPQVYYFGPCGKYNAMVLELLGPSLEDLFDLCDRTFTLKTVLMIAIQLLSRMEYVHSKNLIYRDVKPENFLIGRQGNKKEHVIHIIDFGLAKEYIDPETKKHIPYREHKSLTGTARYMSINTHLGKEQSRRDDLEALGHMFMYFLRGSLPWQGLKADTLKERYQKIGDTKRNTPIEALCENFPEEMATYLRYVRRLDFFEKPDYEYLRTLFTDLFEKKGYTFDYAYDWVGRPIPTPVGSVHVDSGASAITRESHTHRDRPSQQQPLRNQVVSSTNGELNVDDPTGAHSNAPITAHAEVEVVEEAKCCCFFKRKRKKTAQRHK

For `Cc1ccc(NC(=O)c2ccc(CN3CCN(C)CC3)c(C(F)(F)F)c2)cc1-c1cnc2sc(N)nc2c1` [6r], the inhibition at 1 µM [1] was 0%, the inhibition at 1 µM [2] was 13.6% and the inhibition at 1 µM [3] was 16.7%. For the same compound, the inhibition at 1 µM [4] was 8%, the inhibition at 1 µM [5] was 10.5% and the inhibition at 1 µM [6] was 38.7%. The inhibition at 1 µM [7] was 0%, the inhibition at 1 µM [8] was 0% and the inhibition at 1 µM [9] was 4.6%. It also gave an inhibition at 1 µM [10] of 6.9%, an inhibition at 1 µM [11] of 0% and an inhibition at 1 µM [12] of 0%. The inhibition at 1 µM [13] was 31.8%, the inhibition at 1 µM [14] was 3.9% and the inhibition at 1 µM [15] was 12.8%. For the same compound, the inhibition at 1 µM [16] was 0%, the inhibition at 1 µM [17] was 0% and the inhibition at 1 µM [18] was 23.2%. The inhibition at 1 µM [19] was 0%, the inhibition at 1 µM [20] was 0.7% and the inhibition at 1 µM [21] was 0%. It also gave an inhibition at 1 µM [22] of 12.8%, an inhibition at 1 µM [23] of 13.6% and an inhibition at 1 µM [24] of 7.1%. The inhibition at 1 µM [25] was 0%, the inhibition at 1 µM [26] was 19.6% and the inhibition at 1 µM [27] was 9.2%. It also gave an inhibition at 1 µM [28] of 0%, an inhibition at 1 µM [29] of 0% and an inhibition at 1 µM [30] of 1.8%. For the same compound, the inhibition at 1 µM [31] was 8.1%, the inhibition at 1 µM [32] was 2% and the inhibition at 1 µM [33] was 1.3%. The inhibition at 1 µM [34] was 0%, the inhibition at 1 µM [35] was 0.2% and the inhibition at 1 µM [36] was 74.9%. The inhibition at 1 µM [37] was 5.4%, the inhibition at 1 µM [38] was 5.2% and the inhibition at 1 µM [39] was 50.5%. For the same compound, the inhibition at 1 µM [40] was 20.7%, the inhibition at 1 µM [41] was 31.5% and the inhibition at 1 µM [42] was 0%.
